Target: T1, AChE from Electrophorus electricus (Electrophorus electricus, UniProt O42275)
T1 construct: purchased Sigma-Aldrich (St. Louis, MO, USA)
Assay: biochemical
Details: for IC50: Ellman's reagent, microplate, 37 °C, pH 7.5, read-out: half maximal inhibitory concentration (IC50) against AChE
Experimental: Microplate assays utilizing Ellman’s reagent were performed to quantitatively assess the inhibitory activity of the isolated compounds against AChE [67].
Ammonium thiocyanate, sodium thiosulfate pentahydrate, anhydrous sodium sulfate and iodine were purchased from Cicarelli Laboratorios (San Lorenzo, Santa Fe). AChE from Electrophorus electricus EC 3.1.1.7, Fast blue salt B (FBB), α-naphthol, α-naphthyl acetate (α-NAc), and CDCl3, were purchased from Sigma-Aldrich (St. Louis, MO, USA). Acetonitrile (LCMS grade) was acquired from Carlo Erba Reagents (Val de Reuil, France) and formic acid from Merck. Aluminium TLC sheets coated with Silica gel 60 F were purchased from Merck (Darmstadt, Germany). Agar was purchased from Britania (Bs. As., Argentina).
Inhibition percentage determinations were carried out using the method applied by Osella et al.. Wells were filled in triplicate with AChE solution (in 0.1 M phosphate buffer, pH 7.5, and 13.7 µU/mL end concentration per well), Ellman’s reagent (DTNB, 5,5dithio-bis-(2-nitrobenzoic acid)), the same buffer solution (0.31 mM end concentration per well) and 10 µL of test compound in DMSO solution (0.05 µM end concentration per well). […] The enzymatic reaction was initiated by addition of acetylthiocholine iodide (0.46 mM end concentration per well). The final volume per well was 270 µL. The plate was shaken for 2 s and the increase in absorbance at 405 nm was monitored at 37 °C for 15 min. For IC50 determination, ten serial dilutions of the compounds were prepared in DMSO, following equally spaced points on a neperian logarithm scale, starting at 2.16 mM and finishing at 0.00023 mM (end concentration per well: 80.00 to 0.00839 µM). IC50 calculated using Prism V5.01 (GraphPad Software Inc., La Jolla, CA, USA) applying a non linear regression curve fit for a log[inhibitor] vs. normalized answer model with variable slope.

T1 sequence (O42275 24-633): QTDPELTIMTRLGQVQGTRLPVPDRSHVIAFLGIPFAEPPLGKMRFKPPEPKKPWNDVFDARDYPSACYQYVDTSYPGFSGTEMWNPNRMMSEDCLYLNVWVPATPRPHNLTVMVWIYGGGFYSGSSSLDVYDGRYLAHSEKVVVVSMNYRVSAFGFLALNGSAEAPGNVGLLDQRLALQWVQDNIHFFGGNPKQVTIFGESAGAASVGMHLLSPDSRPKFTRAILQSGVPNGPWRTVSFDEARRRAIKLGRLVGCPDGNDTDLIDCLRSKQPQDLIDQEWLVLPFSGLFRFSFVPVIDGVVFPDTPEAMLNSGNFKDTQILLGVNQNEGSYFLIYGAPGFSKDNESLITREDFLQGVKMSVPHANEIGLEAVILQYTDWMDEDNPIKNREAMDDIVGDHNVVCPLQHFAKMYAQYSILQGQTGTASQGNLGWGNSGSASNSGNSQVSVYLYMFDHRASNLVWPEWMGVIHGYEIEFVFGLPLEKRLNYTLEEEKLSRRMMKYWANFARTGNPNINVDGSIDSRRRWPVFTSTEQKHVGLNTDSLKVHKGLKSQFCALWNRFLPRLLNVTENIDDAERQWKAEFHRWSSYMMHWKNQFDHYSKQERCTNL

| SMILES | IC50 [nM] | activity against AChE (in words) |
| --- | --- | --- |
| Cc1cc(Sc2cc(C)c(O)cc2C(C)C)c(C(C)C)cc1O [compound 2, 4,4′-thiobis(5-isopropyl-2-methylphenol)] | 158 ± 59 |  |
| Cc1cc(Sc2nsc(-c3cc(C)c(O)cc3C(C)C)n2)c(C(C)C)cc1O [compound 3, 4-((5-(4-hydroxy-2-isopropyl-5-methylphenyl)-1,2,4-thiadiazol-3-yl)thio)-5-isopropyl-2-methylphenol] | 56 ± 25 |  |
| Cc1ccc(C(C)C)cc1O [carvacrol, reference compound] |  | inactive |
| Cc1cc(SC#N)c(C(C)C)cc1O [compound 1, 5-isopropyl-2-methyl-4-thiocyanatophenol] | 4086 ± 35 |  |
| Cc1cc(Sc2nsc(Sc3cc(C)c(O)cc3C(C)C)n2)c(C(C)C)cc1O [compound 4] | 34 ± 16 |  |
